According to patent US8168232B2, “Formulations and methods of using nitric oxide mimetics in cancer treatment” (priority 2000, dated 2012):

How the values were obtained:
Assay type in all cases: cell-based, human
[1] = tested on: uPAR protein; assay: Western blot analysis of uPAR protein in MDA-MB-231 breast carcinoma cells
Protocol: Following incubations, the cells were lysed using a buffer containing 40 mM HEPES pH 7.2, 100 mM NaCl, 20% glycerol, 0.1 mM EDTA pH 8.0, 0.2% Triton X-100, 1 mM DTT, and 2 mM PMSF. The lysates were then subjected to homogenization, DNA shearing (10 times with a 25⅝-gauge needle), boiling (5 minutes) and centrifugation (15 minutes, 14000 g). The supernatant was collected and stored at −80° C. until use. The samples were subjected to SDS-polyacrylamide gel electrophoresis (PAGE) and the resolved proteins were transferred to an Immobilon-P membrane using a wet transfer apparatus (Bio-Rad Laboratories, Mississauga, ON). The membranes were blocked overnight at 4° C. in a solution containing 1% PBS, and 0.01% Tween20 (PBS-T) as well as 5% casein. The blots were subsequently incubated for 1.5 hours with the monoclonal anti-uPAR antibody [MoAb 3937], followed by six 5 minute washes with PBS-T. The membranes were then incubated with a horseradish peroxidase labeled goat anti-mouse IgG secondary antibody for 1.5 hours. Following six additional 5 minute washes with PBS-T, the antigen was detected by enhanced chemiluminescence and the blots were exposed onto Dupont Reflection NEF film.
Following incubation, the cells were lysed using a buffer containing 40 mM HEPES pH 7.2, 100 mM NaCl, 20% glycerol, 0.1 mM EDTA pH 8.0, 0.2% Triton X-100, 1 mM dithiothreitol (DTT), and 2 mM phenylmethyl sulfonyl fluoride (PMSF). The lysates were then subjected to homogenization, DNA shearing (10 times with a 25⅝-gauge needle), boiling (5 minutes) and centrifugation (15 minutes at 14,000×g). The supernatant was collected and stored at −80° C. until use. The samples were subjected to SDS-polyacrylamide gel electrophoresis (PAGE) and the resolved proteins were transferred to an Immobilon-P membrane (Millipore Corp., Bedford, Mass.) using a wet transfer apparatus (BioRad Laboratories, Mississauga, ON). The membranes were blocked overnight at 4° C. in a solution containing 1% PBS, and 0.01% Tween 20 (PBS-T) as well as 5% dry milk powder. The blots were subsequently incubated for 1.5 hours with the monoclonal anti-uPAR (MoAb 3937; American Diagnostica Inc., Greenwich, Conn.), or a polyclonal soluble guanylate cyclase (sGC) antiserum (Cayman Chemical, Ann Arbor, Mich.) followed by six 5-minute washes with PBS-T. Subsequently, the uPAR membranes were incubated for 1 hour with a horseradish peroxidase labelled goat anti-mouse IgG secondary antibody (Bio-Rad, Hercules, Calif.) and the sGC membranes were incubated for 1 hour with a goat anti-rabbit IgG horseradish peroxidase conjugate (VECTOR Laboratories Inc., Burlingame, Calif.). Following six additional 5-minute washes with PBS-T, the antigen was detected by enhanced chemiluminescence (Amersham Canada Inc., Mississauga, ON) and the blots were exposed onto Dupont Reflection NEF film.

[2] = tested on: PROXY-1 mRNA; assay: PROXY-1 mRNA levels in HTR-8/SVneo invasive trophoblast cells; conditions: 1% O2
Source text: PROXY-1 mRNA levels were very low in cells cultured in 20% O2.

[3] = tested on: PAI-1 mRNA; assay: Northern blot of PAI-1 mRNA in breast cancer cells; conditions: SNP 10^−12 M, GTN 10^−11 M
Protocol: Following incubation, the total cellular RNA from the cells was isolated using the Gentra […] RNA Isolation Kit. The isolated RNA was subsequently separated by electrophoresis, and transferred to charged nylon membranes. The membranes were prehybridized at 42° C. for approximately 2 hours in a solution containing 50% formamide, 5×Denhardt's solution, 0.5% sodium dodecyl sulfate (SDS), 6×SSC (1×SSC=0.15 M NaCl, 15 mM sodium citrate, pH 7.0) and 100 μg/mL denatured salmon sperm DNA. They were then hybridized with a [^32P]-dCTP-labeled cDNA probe (uPAR or PAI-1) for approximately 24 hours at 42° C. in a solution composed of 6×SSC, 0.5% SDS, 100 μg/mL denatured salmon sperm DNA and 50% formamide, and containing a cDNA probe (uPAR or PAI-1) which was labeled with [^32P]-dCTP using a Pharmacia Oligolabelling kit. Following serial washes, the membrane was used to expose Dupont Reflection NEF film. After 1-4 days, the film was developed and analyzed. To correct for differences in the amount of RNA loaded in each sample, 28S rRNA was used.

[4] = tested on: MDA-MB-231 breast cancer cells; assay: Colony formation assay for doxorubicin resistance, MDA-MB-231 monolayer
Protocol: The resistance of MDA-MB-231 breast cancer cells to doxorubicin was determined following culture in 20% or 1% oxygen by counting the number of colonies formed. MDA-MB-231 cells were incubated in 1% O2 or 20% O2 for 24 hours. […] The cells were washed and then plated onto 35 mm plates at different dilutions. The cells were incubated for an additional 1-2 weeks in order to allow cell colonies to grow. At the end of the incubation period, the cells were fixed with Carnoy's fixative, stained with Crystal violet, rinsed and allowed to air dry. Colonies were counted visually. The surviving cells under each condition was determined by counting the number of colonies and was expressed as a fraction of the number of colonies that survived without doxorubicin exposure.
Using human MDA-MB-231 breast carcinoma cells in clonogenic assays, survival was determined following doxorubicin exposure and NO mimetic administration to both monolayer and spheroid cultures. […] However, these NO mimetics effectively attenuated the resistance to 200 μM doxorubicin associated with 3D culture by 90% and 30% respectively.

Structure (SMILES): O=[N+]([O-])OCC(CO[N+](=O)[O-])O[N+](=O)[O-] [GTN, glyceryl trinitrate]
- uPAR protein levels vs 20% O2 alone ([1]; combination of L-NMMA (0.5 mM) and GTN (0.1 nM), 20% O2): no significant increase
- hypoxic upregulation of uPAR protein expression ([1]; single doses GTN 1 pM, 1 nM and 0.1 μM, 24 hours 0.5% oxygen): prevent the upregulation
- PROXY-1 mRNA levels in hypoxic cells ([2]; 10^−7 M GTN): increased
- PROXY-1 mRNA levels in hypoxic cells ([2]; 10^−11 M GTN): much lower
- PAI-1 mRNA levels vs untreated hypoxic cells [3]: significantly decreased
- doxorubicin survival rates vs untreated hypoxic cells ([4]; hypoxic cells, 10^−6 M and 10^−10 M GTN): lower doxorubicin survival rates
- attenuation of hypoxia-induced resistance to doxorubicin ([4]; monolayer cells in 1% O2, GTN 1 μM): 50%
